Literature values in publication PMC8472830, “Inclusion of Medium-Chain Triglyceride in Lipid-Based Formulation of Cannabidiol Facilitates Micellar Solubilization In Vitro, but In Vivo Performance Remains Superior with Pure Sesame Oil Vehicle” (Pharmaceutics, 2021).

Assays:
[1] = set-up: method as in PMID 12412831; conditions: pH 7.4
[2] = set-up: method as in PMID 29109461, PMID 27648135; conditions: rats, oral, natural sesame oil vehicle
[3] = set-up: method as in PMID 32634571; conditions: healthy male volunteers

Question: Which clogD7.4 [1] does the source give for `C=C(C)[C@@H]1CCC(C)=C[C@H]1c1c(O)cc(CCCCC)cc1O` [CBD, Cannabidiol] here?
Answer: 6.53

Question: What about the “Drug concentration in lymph fluid compared to plasma” value [2] of the same molecule?
Answer: 250 fold

Question: What about the “Increase of systemic bioavailability of CBD compared to the lipid-free vehicle” value [2] of the same molecule?
Answer: 2.8 fold

Question: And the “Increase of CBD oral absorption in sesame oil compared to CBD powder” value [3]?
Answer: eight-fold
